# Read-outs that look alike come from different tables or passages of the source.
# How the values were obtained:
# human DAT = human DAT (Homo sapiens, UniProt Q01959); assay: DAT transporter inhibitory activity test (neurotransmitter transporter uptake assay kit); assay type: cell-based; conditions: DAT stably transfected HEK cells; read-out: DAT (IC50)
# Procedure: Transporter inhibition of human DAT and NET expressed in HEK-293 cells was assessed using a neurotransmitter transporter uptake assay kit. The assay was performed as described in the kit instructions, using centanafadine as a positive control. The specific procedures were as follows:
# DAT stably transfected culture: The DAT-HEK cell line was cultured in DMEM medium containing 10% fetal bovine serum and 0.2 mg/mL hygromycin B at 37° C. with 5% carbon dioxide.
# DAT stably transfected cell passage: the old medium was removed, and the cells were washed once with PBS; 1 mL of TrypLE™ Express solution was then added, and the cells were incubated at 37° C. for about 2 min. When the cells were detached from the bottom of the dish, about 5 mL of complete medium pre-heated at 37° C. was added. The cell suspension was gently pipetted to separate the aggregated cells. The cell suspension was transferred to a sterile centrifuge tube and centrifuged at 1000 rpm for 5 min. In order to maintain the physiological activity of the cells, the experimental cell confluence was controlled at about 80%.
# • a) After overnight transfection of NET cells, the cells were digested with trypsin, resuspended with DMEM+10% Dialyzed FBS medium, seeded into a 384-well plate at 20000 cells/well, and incubated overnight. […] After centrifuging, the plate was incubated at 37° C. for 30 min. • e) A detection reagent was prepared using 1×HBSS, and 16 μL of the detection reagent was added to each well. […] Curve fitting and IC50 calculation were performed using GraphPad Prism software nonlinear regression method.
# [1] = Human liver microsome assay (metabolic stability); assay type: in vitro ADME; conditions: pH 7.4, human liver microsomes 0.2 mg/mL, 1 μM test drug, NADPH, 37° C.; for half-life at 1 μM: read-out: Half-life (t1/2, min); for CLint scaled at 1 μM: read-out: Intrinsic clearance (Clint, mL/min/kg)
# Procedure: Control and reagent: NADPH, magnesium chloride, testosterone, phosphate buffer, etc. were supplied by Dalian Meilun Biotech Co., Ltd., etc.
# Liver microsome: human liver microsomes were supplied by Corning.
# Experimental step: the liver microsome incubations were performed in 96-well plates, each incubation system having a volume of 200 μL, in a medium of 0.1 M phosphate buffer (pH 7.4), including liver microsomes at a final concentration of 0.2 mg/mL, 1 μM of the test drug, 3.0 mM MgCl2, 0.01% DMSO, 0.5% acetonitrile, and 2.0 mM NADPH. The incubation system described above without NADPH was pre-incubated at 37° C. for 5 min using a rotary water bath constant temperature oscillator. NADPH was added to initiate the reaction. At 0, 5, 15, 30, and 60 min, 20 μL of the sample was taken out from the incubation system after mixing well and added to 200 μL of acetonitrile containing an internal standard to terminate the reaction. Under the same conditions, 1 μM testosterone was used as a positive control to assess the reliability of the reaction system. For the negative control, phosphate buffer was used instead of NADPH, and all other incubation conditions remained the same. At 60 min, 20 μL of the sample was taken out after mixing well and added to 200 μL of termination solution containing an internal standard to terminate the reaction.
# Sample analysis: After treatments such as precipitated protein extraction with an organic solvent, the incubated sample was analyzed using liquid chromatography-tandem mass spectrometry (LC-MS/MS). The concentrations of the test drug or the positive control drug in the sample were semi-quantified. The concentration in the sample was expressed using the ratio of the analyte peak area to the internal standard peak area.
# Data processing and analysis: A standard curve of the In residual rate of the drug in the incubation system with respect to the incubation time was plotted by using Excel software, linear regression was performed to obtain a slope k, and the half-life T1/2 (min) and the intrinsic clearance CLint (mL/min/kg) were calculated according to the following formula: […]
# [2] = In vivo metabolism (pharmacokinetic) experiment in mice; set-up: species or system male ICR mice; conditions: mouse, male ICR mice; for AUC(0-inf) / Cmax / half-life: oral 10 mg/kg, plasma; for AUC(0-inf): read-out: AUC0-inf(po); for Cmax: read-out: Cmax (po); for half-life: read-out: T1/2 (po) (converted)
# Procedure: Animal: male ICR mice. The animals were randomly assigned to treatment groups and fasted for 12 h prior to dosing.
# Drug: the compound of the present disclosure was dissolved in a vehicle (5% DMSO+5% Solutol HS15+90% saline). For intravenous (iv) administration, the dose was 2.5 mg/kg with a dosing volume of 5 mL/kg; for oral (po) administration, the dose was 10 mg/kg with a dosing volume of 10 mL/kg body weight. Sample collection and bioanalysis: blood was collected from the orbit of the mice and added into EP tubes containing heparin sodium at 0.083, 0.25, 0.5, 1, 2, 4, 6, and 8 h (n=3 for each time point). Immediately after blood collection, the mice were euthanized by cervical dislocation, and mouse brains were collected at the corresponding time points. All samples were promptly collected, snap-frozen, and stored at −70° C. for later use. Plasma samples were obtained by centrifugation of whole blood. 10 μL of plasma was mixed with 190 μL of internal standard solution (20 ng/ml in acetonitrile containing 0.1% formic acid). After mixing, the samples were centrifuged at 13000 rpm for 10 min, and 120 μL of the supernatant was separately collected. Depending on the sensitivity of the compound, 0.5-10 μL of the supernatant was taken for drug analysis using the appropriate liquid chromatography-tandem mass spectrometry (LC-MS/MS). Each analyte was calibrated and identified using standards. According to brain tissue: the extract (50% acetonitrile/water) at a ratio of 1 g:8 mL was homogenized for 2 min using five 3 mm magnetic beads in an OMNI Bead Ruptor 24 Elite homogenizer at 3.2 m/s and centrifuged at 4° C. and 3000 g for 3 min. 50 μL of the supernatant was mixed with 200 μL of internal standard solution (20 ng/mL in 80% acetonitrile/water). After mixing, the samples were centrifuged at 13,000 rpm for 10 min, and 120 μL of the supernatant was separately collected. Depending on the sensitivity of the compound, 0.5-10 μL of the supernatant was taken for drug analysis using the appropriate LC-MS/MS method. Each analyte was calibrated and identified using standards.
# Data analysis: drug concentrations below the lower limit of quantification (LLOQ) were considered zero. Pharmacokinetic parameters were analyzed using PK Solver with a non-compartmental, bolus injection or extravascular input analysis models. Data points below the LLOQ were excluded to improve the efficacy of t1/2 calculation.
# human SERT = human SERT (Homo sapiens, UniProt P31645); assay: Inhibitory activity assay against 5-HT transporter (neurotransmitter transporter uptake assay kit); assay type: cell-based; conditions: HEK-293 cells overexpressing human SERT; read-out: 5-HTT (IC50)
# Procedure: In HEK-293 cells overexpressing human SERT, the transporter inhibitory effect of the test compound on human SERT was assayed using a Neurotransmitter transporter uptake assay kit (Molecular devices).
# Chain of human DAT (Q01959 whole entry): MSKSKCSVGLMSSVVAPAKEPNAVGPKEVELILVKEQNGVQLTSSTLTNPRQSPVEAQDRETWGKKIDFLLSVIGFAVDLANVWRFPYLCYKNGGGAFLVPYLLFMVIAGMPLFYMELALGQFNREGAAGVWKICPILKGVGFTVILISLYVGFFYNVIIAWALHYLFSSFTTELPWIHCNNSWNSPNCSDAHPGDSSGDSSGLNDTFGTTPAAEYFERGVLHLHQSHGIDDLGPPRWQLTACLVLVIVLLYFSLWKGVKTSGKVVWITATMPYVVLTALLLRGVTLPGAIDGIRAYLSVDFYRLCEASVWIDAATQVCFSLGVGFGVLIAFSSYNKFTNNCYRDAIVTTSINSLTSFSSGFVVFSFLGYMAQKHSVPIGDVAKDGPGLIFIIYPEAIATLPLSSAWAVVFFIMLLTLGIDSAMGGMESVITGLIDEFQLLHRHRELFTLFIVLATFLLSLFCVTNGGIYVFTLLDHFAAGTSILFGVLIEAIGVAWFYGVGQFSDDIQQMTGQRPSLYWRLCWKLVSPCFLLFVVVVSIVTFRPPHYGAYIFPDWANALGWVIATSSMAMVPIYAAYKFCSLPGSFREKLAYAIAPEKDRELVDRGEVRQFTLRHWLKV
# Chain of human SERT (P31645 whole entry): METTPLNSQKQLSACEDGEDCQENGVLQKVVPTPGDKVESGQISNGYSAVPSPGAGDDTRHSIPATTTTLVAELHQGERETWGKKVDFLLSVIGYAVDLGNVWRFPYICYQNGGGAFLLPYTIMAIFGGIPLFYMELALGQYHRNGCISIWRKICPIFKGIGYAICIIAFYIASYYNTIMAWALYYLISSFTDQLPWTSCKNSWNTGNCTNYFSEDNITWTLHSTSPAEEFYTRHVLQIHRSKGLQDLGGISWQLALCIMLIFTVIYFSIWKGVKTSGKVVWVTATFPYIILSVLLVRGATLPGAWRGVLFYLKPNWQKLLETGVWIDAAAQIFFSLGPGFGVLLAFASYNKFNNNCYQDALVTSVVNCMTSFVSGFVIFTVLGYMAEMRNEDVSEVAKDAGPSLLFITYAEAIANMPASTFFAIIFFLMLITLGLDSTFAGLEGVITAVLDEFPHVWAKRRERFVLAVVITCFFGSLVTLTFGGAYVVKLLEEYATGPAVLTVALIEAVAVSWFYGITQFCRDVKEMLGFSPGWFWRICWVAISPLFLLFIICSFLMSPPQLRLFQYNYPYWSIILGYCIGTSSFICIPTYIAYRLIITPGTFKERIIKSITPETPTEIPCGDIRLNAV
SMILES,IC50 (human DAT) [µM],also measured
"COc1cccc(C2(N(C)C)CCc3nc(N)sc3C2)c1 (racemic) [rac-A283, 6-(3-methoxyphenyl)-N^6,N^6-dimethyl-4,5,6,7-tetrahydrobenzo[d]thiazole-2,6-diamine]",0.45,
"COc1cc(C2(N)CCc3nc(N)sc3C2)ccn1 (racemic) [rac-A309, 6-(2-methoxypyridin-4-yl)-4,5,6,7-tetrahydrobenzo[d]thiazole-2,6-diamine]",14,
"Nc1nc2c(s1)CC(NCC1CC1)(c1ccccc1F)CC2 (racemic) [rac-A374, N^6-(cyclopropylmethyl)-6-(2-fluorophenyl)-4,5,6,7-tetrahydrobenzo[d]thiazole-2,6-diamine]",3.8,
"c1ccc(C2(N3CCCCC3)CCc3ncsc3C2)cc1 (racemic) [rac-A71, 6-phenyl-6-(piperidin-1-yl)-4,5,6,7-tetrahydrobenzothiazole]",,half-life at 1 μM [1]: 210 min; CLint scaled at 1 μM [1]: 13.8 mL/min/kg
"CN(C)C1(c2cccc(O)c2)CCc2nc(N)sc2C1 (racemic) [rac-A305, 3-(2-amino-6-dimethylamino-4,5,6,7-tetrahydrobenzo[d]thiazol-6-yl)phenol]",0.24,
Nc1nc2c(s1)C[C@@](c1ccccc1)(N1CCCC1)CC2 [S-A50],2.4,
"Clc1cccc(C2(N3CCCCC3)CCc3nnsc3C2)c1 (racemic) [rac-A58, 6-(3-chlorophenyl)-6-(piperidin-1-yl)-4,5,6,7-tetrahydrobenzothiadiazole]",2.7,
"NC1(c2ccccc2)CCCc2scnc21 (racemic) [rac-A32, 4-phenyl-4,5,6,7-tetrahydrobenzothiazol-4-amine]",,half-life at 1 μM [1]: 196 min; CLint scaled at 1 μM [1]: 20.7 mL/min/kg
"c1ccc(C2(N3CCOCC3)CCc3sccc3C2)cc1 (racemic) [rac-A47, 4-(5-phenyl-4,5,6,7-tetrahydrobenzothiophen-5-yl)morpholine]",1.3,
"CNCC1(c2ccccc2)CCc2nc(N)sc2C1 (racemic) [rac-A252, 6-((methylamino)methyl)-6-phenyl-4,5,6,7-tetrahydrobenzo[d]thiazol-2-amine]",9.5,
"O=C(O)c1cc2c(s1)CCC(c1ccccc1)(N1CCOCC1)C2 (racemic) [rac-A46, 5-morpholino-5-phenyl-4,5,6,7-tetrahydrobenzothiophen-2-carboxylic acid]",,"AUC(0-inf) ([2]; male, ICR, po, 10 mg/kg): 3900 ng·h/mL; Cmax ([2]; male, ICR, po, 10 mg/kg): 2710 ng/mL; half-life ([2]; male, ICR, po, 10 mg/kg): 2.6 h"
"CCOc1cccc([C@]2(N)CCc3nc(N)sc3C2)c1 [S-A228, (S)-6-(3-ethoxyphenyl)-4,5,6,7-tetrahydrobenzo[d]thiazole-2,6-diamine]",1.8,
"NC1(c2cccc(O)c2)CCc2nc(NCC(F)(F)F)sc2C1 (racemic) [rac-A396, 3-(6-amino-2-((2,2,2-trifluoroethyl)amino)-4,5,6,7-tetrahydrobenzo[d]thiazol-6-yl)phenol]",18,
"CN(C)C1(c2ccccc2F)CCc2nc(N)sc2C1 (racemic) [rac-A234, 6-(2-fluorophenyl)-N^6,N^6-dimethyl-4,5,6,7-tetrahydrobenzo[d]thiazole-2,6-diamine]",6.3,IC50 (human SERT): 0.3 µM
"NC1(c2ccc3ccccc3c2)CCc2sccc2C1 (racemic) [rac-A247, 5-(naphthalen-2-yl)-4,5,6,7-tetrahydrobenzo[b]thiophen-5-amine]",1.5,IC50 (human SERT): 4.5 µM
"CNC1(c2cccnc2)CCc2nc(N)sc2C1 (racemic) [rac-A99, N^6-methyl-6-(pyridin-3-yl)-4,5,6,7-tetrahydrobenzothiazole-2,6-diamine]",11,
N[C@@]1(c2ccccc2)CCc2ncsc2C1 [S-A14],11,
"CNC1(c2ccccc2)CCc2[nH]ncc2C1 (racemic) [rac-A69, N-methyl-5-phenyl-4,5,6,7-tetrahydro-1H-indazol-5-amine]",,"bioavailability ([2]; oral 10 mg/kg vs iv 2.5 mg/kg, read-out: F (%)): 132%; AUC(0-inf) [2]: 602 ng·h/mL; Cmax [2]: 456 ng/mL; half-life [2]: 0.69 h"
"CCOc1cccc(C2(NC)CCc3nc(N)sc3C2)c1 (racemic) [rac-A342, 6-(3-ethoxyphenyl)-N^6-methyl-4,5,6,7-tetrahydrobenzo[d]thiazole-2,6-diamine]",0.35,
"CCNC1(c2cccc(OC)c2)CCc2nc(N)sc2C1 (racemic) [rac-A226, N^6-ethyl-6-(3-methoxyphenyl)-4,5,6,7-tetrahydrobenzo[d]thiazole-2,6-diamine]",2,IC50 (human SERT): 2 µM
"Nc1nc2c(s1)CC(N)(c1ccc3c(c1)OCO3)CC2 (racemic) [rac-A303, 6-(benzo[d][1,3]dioxol-5-yl)-4,5,6,7-tetrahydrobenzo[d]thiazole-2,6-diamine]",8.2,
"c1ccc(C2(N3CCCC3)CCc3nnsc3C2)cc1 (racemic) [rac-A54, 6-phenyl-6-(pyrrolidin-1-yl)-4,5,6,7-tetrahydrobenzothiadiazole]",2.8,
Nc1nc2c(s1)C[C@](N)(c1ccccc1)CC2 [S-A1],6.5,
"CC(C)Oc1cccc(C2(N)CCc3nc(N)sc3C2)c1 (racemic) [rac-A321, 6-(3-isopropoxyphenyl)-4,5,6,7-tetrahydrobenzo[d]thiazole-2,6-diamine]",5.9,
"CNC1(c2ccc(Cl)cc2)CCc2nc(N)sc2C1 (racemic) [rac-A332, 6-(4-chlorophenyl)-N^6-methyl-4,5,6,7-tetrahydrobenzo[d]thiazole-2,6-diamine]",3.2,

# — US20260174739A1 (priority 2022, published 2026)
